We go through 6 compounds from PMC4076177, “Soluble Phosphatidylserine Binds to Two Sites on Human Factor IXa in a Ca^2+ Dependent Fashion to Specifically Regulate Structure and Activity” (PLoS ONE, 2014).

What is called Kd is the free concentration of one partner at which half of the binding sites on the other are occupied at equilibrium, for simple one-to-one binding.

The target in the assay is T1, Human FIXa (Homo sapiens, UniProt P00740).
T1 construct: gene F9; purchased from Haematologic Technologies, no tag stated
Kind of assay: intrinsic fluorescence titration, single-site hyperbolic fit. The note with it: for Kd: read-out: Kd, μM (determined by monitoring change in intrinsic fluorescence). Format: binding. The text has this: intrinsic fluorescence titration, single-site hyperbolic fit on Human FIXa

T1 sequence (P00740 47-191): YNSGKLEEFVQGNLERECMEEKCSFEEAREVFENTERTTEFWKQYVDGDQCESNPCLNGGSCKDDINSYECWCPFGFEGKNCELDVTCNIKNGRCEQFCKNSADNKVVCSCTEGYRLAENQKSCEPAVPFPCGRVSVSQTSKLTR
T1 sequence (P00740 227-461): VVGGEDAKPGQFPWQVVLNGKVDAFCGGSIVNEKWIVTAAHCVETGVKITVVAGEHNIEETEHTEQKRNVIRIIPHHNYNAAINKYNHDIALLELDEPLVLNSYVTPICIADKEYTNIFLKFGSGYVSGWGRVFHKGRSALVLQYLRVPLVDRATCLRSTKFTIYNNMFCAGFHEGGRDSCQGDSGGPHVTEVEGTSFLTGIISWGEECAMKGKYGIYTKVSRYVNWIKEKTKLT

With `CCCCCC(=O)OC[C@H](COP(=O)(O)OC[C@@H](N)C(=O)O)OC(=O)CCCCC` [C6(D)PS], the Kd stood at 208 ± 18 µM. The same measure, in the same setting: for `CCCCCC(=O)OC[C@H](COP(=O)(O)O)OC(=O)CCCCC` [C6PA] the value was 238 ± 42.7 µM. Take `CCCCCC(=O)OC[C@H](COP(=O)([O-])OCC[N+](C)(C)C)OC(=O)CCCCC` [C6PC]: the “Kd, μM (determined by monitoring change in intrinsic fluorescence)” value (5 mM CaCl2, 0.20 µM FIXa, 50 mM Tris, 150 mM NaCl, 0.6% PEG, pH 7.5, 22°C, unreliable (Figure 2 legend prints 2000 µM)) came to 1000 ± 45 µM. With `CCCCCC(=O)OC[C@H](COP(=O)(O)OCCN)OC(=O)CCCCC` [C6PE], the Kd stood at 66 ± 7 µM. Same read-out and setting: as for `CCCCCC(=O)OC[C@H](COP(=O)(O)OCC(O)CO)OC(=O)CCCCC` (stereo partly drawn) [C6PG], the figure is 307 ± 28.8 µM; as for `CCCCCC(=O)OC[C@H](COP(=O)(O)OC[C@H](N)C(=O)O)OC(=O)CCCCC` [C6PS, 1,2-dicaproyl-sn-glycero-3-phospho-L-serine], 1.3 ± 0.2 µM.
